# Measurements reported in paper PMC11466185, “Mechanisms and efficacy of small molecule latency-promoting agents to inhibit HIV reactivation ex vivo” (JCI Insight, 2024).
# “And” between values parts separate entries of the source, which are not always exact repeats. Identical values can stand only once.
# Legend:
# [1] = tested on: HIV transcripts (TAR, LLTR, Pol, PolyA, TatRev); experiment: Latency reversal assay: cell-associated HIV transcripts (RT-ddPCR) 24 hours after anti-CD3/CD28 activation of PBMCs from ART-suppressed PWH; type: cell-based; parameters: key to TatRev: % of activated DMSO control, normalized to 1 μg total RNA; Elongated (LLTR) HIV transcripts, median relative to activated DMSO, initial screening / Midtranscribed (Pol) HIV transcripts, median relative to activated DMSO, initial screening / Multiply spliced (TatRev) HIV transcripts, median relative to activated DMSO, initial screening: concentration or dose not given beside the values; conditions: for HIV transcriptional elongation, ratio LLTR/TAR: compared with activated DMSO, Figure 3B; for Pol HIV transcripts (DMSO αCD3/28 = 100) / PolyA HIV transcripts (DMSO αCD3/28 = 100) / TatRev HIV transcripts (DMSO αCD3/28 = 100): αCD3/28-activated, ruxolitinib 4μM, triptolide 25-50nM, alvocidib 40nM, dinaciclib 8nM, AZD4573 8nM, quercetin 5μM, pladienolide B 10nM, isoginkgetin 25μM, herboxidiene 5nM, KRIBB11 2.5μM, tanespimycin 5μM, mithramycin A 25nM; for PolyA / TatRev: DMSO+αCD3/28 = 100, Fig 3A; for LLTR/TAR / PolyA/LLTR / TatRev/PolyA: DMSO+CD3/28 = 1, Fig 3B, C and D
# Method: We selected 26 small molecules targeting pathways implicated in HIV transcription or the blocks to HIV transcription underlying latency (Supplemental Table 1). […] Initial screening of all drugs was performed in freshly isolated PBMCs from 2 ART-suppressed individuals (Figure 1 and Supplemental Figure 2). PBMCs were cultured in the presence of individual drugs in DMSO or DMSO alone as a control, subsequently activated (anti-CD3/CD28), and harvested after 24 hours. […] The progression through different blocks to HIV transcription was quantified by measuring the levels of initiated (TAR), 5′ elongated (LLTR), midtranscribed/unspliced (Pol), completed (PolyA), and multiply spliced (TatRev) HIV transcripts. The levels of those HIV transcripts were normalized to 1 μg of total cellular RNA (to normalize for the effect of the drug on global cellular transcription) and expressed as a percentage of the activated DMSO control.
# (§1) Figure 1 Screening of candidate LPAs by measuring the change in multiply spliced HIV transcripts after activation. Each drug was tested in PBMCs from 2 ART-suppressed study participants (denoted in the legend by varying symbol shapes). PBMCs were aliquoted into wells at 6 × 10^6 cells/well. After activation, the cells were cultured with antiretrovirals in the presence of individual drugs in DMSO or DMSO alone as control. All conditions were tested in the presence of CD3/28 T cell–activating beads, except for the unactivated DMSO condition. (A) After 24 hours, the viability was measured by trypan blue staining and then normalized to the levels of the activated DMSO (% of activated DMSO). Bars indicate medians. (B) Total cellular RNA was extracted, and the levels of multiply spliced HIV transcripts (TatRev) were measured by RT-ddPCR, normalized to 1 μg of total cellular RNA, and expressed as a percentage of the activated DMSO control (% of activated DMSO). RT-dd, reverse transcription digital droplet; vRNA, viral RNA; HAT, histone acetyltransferase.
# The ability of our candidate LPAs to inhibit HIV transcriptional progression after activation was examined in PBMCs from a minimum of 7 PWH per drug tested (Figure 3). PBMCs were cultured in the presence of individual drugs in DMSO or in DMSO alone as a control, subsequently activated (anti-CD3/CD28), and harvested after 24 hours.
# Each drug was tested in PBMCs from 7 ART-suppressed study participants. The PBMCs were aliquoted into wells at 6 × 10^6 cells/well. After activation, the cells were cultured with antiretrovirals in the presence of individual drugs in DMSO or DMSO alone as control. All conditions were tested in the presence of CD3/28 T cell–activating beads, except for the unactivated DMSO condition. After 24 hours, total RNA was extracted, and the progression through different stages of HIV transcription was quantified by measuring the levels of initiated (TAR), 5′ elongated (LLTR), midtranscribed/unspliced (Pol), completed (PolyA), and multiply spliced (TatRev) HIV transcripts. (A) The levels of all HIV transcripts were normalized to 1 μg of total cellular RNA and expressed as a percentage of the activated DMSO control (% of activated DMSO). Medians are shown as well as the individual values per study participant in different colors. (B–D) The effect of each drug on HIV transcriptional progression after activation was analyzed by the ratio of one HIV transcript to another. Ratios are independent of HIV infection frequency or normalization to cell numbers. Shown are the proportion of (B) all HIV transcripts that were elongated (LLTR/TAR), (C) elongated HIV transcripts that were completed spliced (PolyA/LLTR), and (D) completed transcripts that were multiply spliced (TatRev/PolyA).
# [2] = tested on: PBMCs; experiment: Cell viability by trypan blue staining after 24 hours; type: cell-based, human
# Method: as §1
# For quantification of cell-associated HIV transcripts, PBMCs were harvested either after 24 hours or after 6 days. The cell viabilities were measured by trypan blue staining; then the cells were pelleted by centrifuging at 300g for 6 minutes and stored at –80°C. For quantification of virion-associated HIV RNA, cell culture supernatant was collected from 6 × 10^6 PBMCs that were treated and activated for 6 days as described above. Residual cells and cellular debris were subsequently removed from the supernatant by differential centrifugation (300g for 6 minutes, then 20,000g for 10 minutes), and the supernatant was stored at –80°C.
# [3] = 5nM, 24 h after αCD3/28 activation, each column one participant
# [4] = initial screening, 2 participants, 24 hours, Supplemental Figure 2
smiles,measurement,setting,value
CO[C@H]([C@@H](C)[C@H]1O[C@]1(C)C[C@H](C)/C=C/C=C(\C)[C@H]1O[C@@H](CC(=O)O)CC[C@@H]1C)[C@@H](C)O [herboxidiene],LLTR HIV transcripts (DMSO+αCD3/28 = 100),[1]; [3],81.19 and 43.81 and 65.61 and 39.82 and 46.55 and 19.9 and 41.59
same,Pol HIV transcripts (DMSO+αCD3/28 = 100),[1]; [3],51.16 and 73 and 22.91 and 16.22 and 3.35 and 168.38
same,TAR HIV transcripts (DMSO+αCD3/28 = 100),[1]; [3],84.02 and 77.63 and 124.48 and 122.07 and 106.99 and 116.67
same,TatRev HIV transcripts (DMSO+αCD3/28 = 100),[1]; [3],33.33 and 25.2 and 10.9 and 51.8 and 0 (2×)
same,"HIV transcriptional elongation, ratio LLTR/TAR",[1]; 24 hours,Significant reductions
same,Reduction of multiply spliced or completed HIV transcripts in drug screen (selection as candidate LPA),"[1]; initial screening, 2 participants, 24 hours",more than 50%
same,"Multiply spliced (TatRev) HIV transcripts, median relative to activated DMSO, initial screening","[1]; initial screening, 2 participants, 24 hours, Figure 1B, Supplemental Figure 2",23%
same,Pol HIV transcripts (DMSO αCD3/28 = 100),[1]; participant 150b,43.29
same,PolyA HIV transcripts (DMSO αCD3/28 = 100),[1]; participant 150b,23.53
same,TatRev HIV transcripts (DMSO αCD3/28 = 100),[1]; participant 150b,2.69
same,Pol HIV transcripts (DMSO αCD3/28 = 100),[1]; participant 1379,47.94
same,PolyA HIV transcripts (DMSO αCD3/28 = 100),[1]; participant 1379,28.08
same,TatRev HIV transcripts (DMSO αCD3/28 = 100),[1]; participant 1379,171.43
same,Pol HIV transcripts (DMSO αCD3/28 = 100),[1]; participant 2027,133.33
same,PolyA HIV transcripts (DMSO αCD3/28 = 100),[1]; participant 2027,36.92
same,TatRev HIV transcripts (DMSO αCD3/28 = 100),[1]; participant 2027,0
same,Pol HIV transcripts (DMSO αCD3/28 = 100),[1]; participant 2147a,105.88
same,PolyA HIV transcripts (DMSO αCD3/28 = 100),[1]; participant 2147a,21.76
same,TatRev HIV transcripts (DMSO αCD3/28 = 100),[1]; participant 2147a,28.42
same,Pol HIV transcripts (DMSO αCD3/28 = 100),[1]; participant 2161,169.45
same,PolyA HIV transcripts (DMSO αCD3/28 = 100),[1]; participant 2161,268.67
same,TatRev HIV transcripts (DMSO αCD3/28 = 100),[1]; participant 2161,176.87
same,Pol HIV transcripts (DMSO αCD3/28 = 100),[1]; participant 2256,18.46
same,PolyA HIV transcripts (DMSO αCD3/28 = 100),[1]; participant 2256,16.27
same,TatRev HIV transcripts (DMSO αCD3/28 = 100),[1]; participant 2256,1.4
same,PolyA HIV transcripts (DMSO αCD3/28 = 100),[1]; participant 2461,1692.31
same,Pol HIV transcripts (DMSO αCD3/28 = 100),[1]; participant 5557,23.16
same,PolyA HIV transcripts (DMSO αCD3/28 = 100),[1]; participant 5557,23.33
same,TatRev HIV transcripts (DMSO αCD3/28 = 100),[1]; participant 5557,0
same,Multiply spliced HIV transcripts (TatRev) (Fig 1B),"[1]; study participant 150a, 24 hours",33.33 % of activated DMSO
same,PolyA,[1]; study participant 150a,73.21
same,TatRev,[1]; study participant 150a,33.33
same,LLTR/TAR,[1]; study participant 1379,0.186
same,PolyA/LLTR,[1]; study participant 1379,0.4248
same,TatRev/PolyA,[1]; study participant 1379,0
same,PolyA,[1]; study participant 1379,8.45
same,TatRev,[1]; study participant 1379,0
same,LLTR/TAR,[1]; study participant 2027,0.85
same,PolyA/LLTR,[1]; study participant 2027,0.67
same,PolyA,[1]; study participant 2027,43.76
same,Multiply spliced HIV transcripts (TatRev) (Fig 1B),"[1]; study participant 2147b, 24 hours",12.13 % of activated DMSO
same,LLTR/TAR,[1]; study participant 2147b,0.2964
same,PolyA/LLTR,[1]; study participant 2147b,0.9546
same,TatRev/PolyA,[1]; study participant 2147b,0.3499
same,PolyA,[1]; study participant 2147b,22.4
same,TatRev,[1]; study participant 2147b,10.9
same,LLTR/TAR,[1]; study participant 2256,0.3813
same,PolyA/LLTR,[1]; study participant 2256,0.9973
same,TatRev/PolyA,[1]; study participant 2256,1.116
same,PolyA,[1]; study participant 2256,46.43
same,TatRev,[1]; study participant 2256,51.8
same,LLTR/TAR,[1]; study participant 2750,0.5214
same,PolyA/LLTR,[1]; study participant 2750,1.543
same,TatRev/PolyA,[1]; study participant 2750,0.3728
same,PolyA,[1]; study participant 2750,67.59
same,TatRev,[1]; study participant 2750,25.2
same,LLTR/TAR,[1]; study participant 5557,0.3565
same,PolyA/LLTR,[1]; study participant 5557,0.117
same,TatRev/PolyA,[1]; study participant 5557,0
same,PolyA,[1]; study participant 5557,4.86
same,TatRev,[1]; study participant 5557,0
same,Viability (Fig 1A),[2]; study participant 150a,99.57 % of activated DMSO
same,Viability (Fig 1A),[2]; study participant 2147b,98.97 % of activated DMSO
C=CCNC1=C2C[C@@H](C)C[C@H](OC)[C@H](O)[C@@H](C)/C=C(\C)[C@H](OC(N)=O)[C@@H](OC)/C=C\C=C(/C)C(=O)NC(=CC1=O)C2=O [tanespimycin],"HIV transcriptional elongation, ratio LLTR/TAR",[1]; 24 hours,inhibited
same,"Elongated (LLTR) HIV transcripts, median relative to activated DMSO, initial screening",[1]; [4],49%
same,"Midtranscribed (Pol) HIV transcripts, median relative to activated DMSO, initial screening",[1]; [4],31%
same,Viability (Fig 1A),[2]; study participant 150b,104.931 % of activated DMSO
same,Viability (Fig 1A),[2]; study participant 2147b,92.78 % of activated DMSO
